From ChEMBL document CHEMBL1150997, “Novel compound stimulates amylase induction in barley seeds” (Bioorg Med Chem Lett, 1994)

Key:
Assay type in all cases: functional
[1] = system: Hordeum vulgare subsp. vulgare; test: Amylase induction activity in barley aleurone layer at 0.01 uM
[2] = system: Hordeum vulgare subsp. vulgare; test: Amylase induction activity in barley aleurone layer at 0.1 uM
[3] = system: Hordeum vulgare subsp. vulgare; test: Amylase induction activity in barley aleurone layer at 1 uM

- Activity [1]: 0
- Activity [2]: 1
- Activity [3]: 4
Structure (SMILES): CC1=C(C(=O)O)[C@H]2[C@@H](C(C)C)CC[C@]1(C)[C@H]2CO
